Assay results published in publication PMC7363588, “Mapping of the FGF14:Nav1.6 complex interface reveals FLPK as a functionally active peptide modulating excitability” (Physiological Reports, 2020).
Entries after “also recorded” stand apart in the source; their conditions may differ. Peptide text beside a SMILES is read from it.

Biological target: T1, FGF14^V160A (Homo sapiens, UniProt Q92915, V155A)
T1 construct: aa 64–252); 6X His (N); made in house; host or cells: E. coli BL21 (DE3) pLys
T1 sequence (Q92915 64-252 isoform Q92915-2 V160A): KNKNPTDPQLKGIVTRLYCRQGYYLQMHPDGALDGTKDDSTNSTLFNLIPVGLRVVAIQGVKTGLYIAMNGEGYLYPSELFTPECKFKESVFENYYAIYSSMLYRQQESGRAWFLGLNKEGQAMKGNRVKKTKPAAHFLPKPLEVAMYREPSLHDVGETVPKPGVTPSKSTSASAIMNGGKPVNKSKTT
Test: SPR binding to FGF14^V160A
Excerpt: Plasmids used in this study derived from the following clones: human FGF14‐1b isoform (accession number: NM_175929.2) and human Nav1.6 (accession number: NM_014191.3). The CLuc‐FGF14, CD4‐Nav1.6‐NLuc, constructs and the pcDNA3.1 vector (Invitrogen, Carlsbad, CA) were engineered and characterized as previously described (Goetz et al., 2009; Shavkunov et al., 2012,2013,2015; Ali et al., 2016, 2018; Wadsworth et al., 2019). The plasmid pGL3 expressing full length Firefly (Photinus pyralis) luciferase was a gift from Dr. P. Sarkar (Department of Neurology, UTMB). For protein purification studies, cDNAs encoding FGF14‐1b (accession number NP_787125; aa 64–252) or the C‐terminal tail of Nav1.6 (accession number #NP_001171455; aa 1756–1939) were subcloned into suitable pET bacterial expression vectors (pET28a‐FGF14; pET30a‐Nav1.6) with a 6X His‐tag at the N‐terminal site; these plasmids were a gift of Dr. Moosa Mohammadi (NYU, Langone Medical Center). The mutation coding for FGF14^V160A was generated by site‐directed mutagenesis and PCR using FGF14‐1b as a template described previously (Ali et al., 2016). For electrophysiological studies FGF14‐GFP (human) and FGF14‐ΔNT‐GFP (human) were cloned into the GFP plasmid (pQBI‐fC2; Quantum Biotechnology Inc., Montreal, Canada) as previously described.
Upon transformation with corresponding cDNA clones, the recombinant proteins FGF14, FGF14^V160A and Nav1.6 C‐terminal tail were expressed in E. coli BL21 (DE3) pLys (Invitrogen) after induction with 0.1 mM isopropyl thio‐β‐D‐galacto‐pyranoside (IPTG) for 24 hr at 16°C. […]
SPR experiments were performed on a Biacore T100 (GE Healthcare Bio‐Sciences, Pittsburgh, PA), and the interaction of FGF14 and Nav1.6 channel toward FLPK, PLEV and EYYV (1–100 µM) were studied at 25°C. […] Maximal equilibrium responses were plotted against peptide concentrations and association rate constant (kon), dissociation rate constatnt (koff) were determined. […]

[1] = CM5, 25°C, 1–100 µM, RU 18,000, N.M. = not measurable

In the case of `CC(=O)N[C@@H](Cc1ccccc1)C(=O)N[C@@H](CC(C)C)C(=O)N1CCC[C@H]1C(=O)N[C@@H](CCCCN)C(N)=O` [FLPK] (Ac-FLPK-NH2), the “koff, dissociation rate constant” value [1] is reported as “N.M”, the “kon, association rate constant” value [1] is reported as “N.M” and the “binding to FGF14^V160A” value (peptide 1–100 µM) is reported as “no measurable binding; also recorded: no binding of FLPK was detected”.
